Laboratory results published in US8802597B2, “Herbicidal pyrimidines” (E I du Pont de Nemours and Company, priority 2003, dated 2014).

Assays:
Type in all cases: in vivo
[1] = tested on: grape (Vitus vinifera) vines; assay: Test G post-directed application; settings: 1500 g ai/ha, scale 0 to 100
Description: (§1) At a different time, established container-grown grape (Vitus vinifera) vines, and olive (Olea europaea) and orange (Citrus sinensis) trees were treated with some of the test chemicals formulated in the same manner and applied to the soil surface and the lower 5 cm of the plant vines or trunks (post-directed application). Plants ranged in height from 30 to 100 cm. The applications were made using a hand sprayer delivering a volume of 990 L/ha. Treated plants and controls were maintained in a greenhouse for 28 days, after which time the treated plants were compared to controls and visually evaluated.
(§2) Plant response ratings, summarized in Table G, are based on a scale of 0 to 100 where 0 is no effect and 100 is complete control. A dash (-) response means no test result.

[2] = tested on: olive (Olea europaea) trees; assay: Test G post-directed application; settings: scale 0 to 100
Description: as §1, §2

[3] = tested on: orange (Citrus sinensis) trees; assay: Test G post-directed application; settings: 1500 g ai/ha, scale 0 to 100
Description: as §1, §2

[4] = tested on: sugarcane (Saccharum officinarum); assay: Test G sugarcane pre/postemergence
From the text: Also at a different time, seed pieces (nodes) of sugarcane (Saccharum officinarum) were planted and treated preemergence and/or postemergence with some of the test chemicals formulated in the same manner. Treated plants and controls were maintained in a greenhouse for 14 days, after which time the treated plants were compared to controls and visually evaluated.
as §2

[5] = tested on: purple nutsedge (Cyperus rotundus); assay: Test G pre/postemergence
Outline: (§3)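 Visual scores from 0 (no effect) to 100 (complete control) were assigned relative to untreated controls 12 to 21 days after treatment. Compounds, formulated in a non-phytotoxic solvent mixture with surfactant, were applied preemergence to planted seed or postemergence to plants at the 1- to 4-leaf stage (2 to 18 cm).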

[6] = tested on: Canada horseweed (Conyza canadensis); assay: Test G pre/postemergence
Outline: as §3

[7] = tested on: Russian thistle (Salsola kali); assay: Test G pre/postemergence
Outline: as §3

[8] = tested on: sulfonylurea herbicide-susceptible (SU-susceptible) catchweed bedstraw (GALAP; Galium aparine); assay: Test K postemergence; settings: 15 days
Description: (§4) Seeds of plant species selected from sulfonylurea herbicide-susceptible (SU-susceptible) and sulfonylurea herbicide-resistant (SU-resistant) catchweed bedstraw (GALAP; Galium aparine) and wheat (TRZAW; Triticum aestivum) were treated with postemergence applications of test chemicals formulated in a non-phytotoxic solvent mixture which included a surfactant. Plants were treated at the 2-3 leaf stage and 2 whorl stage for wheat and catchweed bedstraw, respectively. Treated plants and controls were maintained in a controlled growth environment for 15 days after which time all species were compared to controls and visually evaluated. Plant response ratings, summarized in Table K, are based on a scale of 0 to 100 where 0 is no effect and 100 is complete control. A dash (-) response means no test result.

[9] = tested on: sulfonylurea herbicide-resistant (SU-resistant) catchweed bedstraw (GALAP; Galium aparine); assay: Test K postemergence; settings: 15 days
Description: as §4

[10] = Postemergence, 250 g ai/ha, scale 0 to 100
[11] = Postemergence, 500 g ai/ha, scale 0 to 100
[12] = Postemergence, 31 g ai/ha, scale 0 to 100
[13] = Postemergence, 62 g ai/ha, scale 0 to 100
[14] = Postemergence, 125 g ai/ha, scale 0 to 100
[15] = Preemergence, 62 g ai/ha, scale 0-100
[16] = Preemergence, 125 g ai/ha, scale 0-100
[17] = Preemergence, 250 g ai/ha, scale 0-100
[18] = Postemergence, 375 g ai/ha, scale 0 to 100
[19] = Preemergence, 500 g ai/ha, scale 0-100
[20] = Preemergence, 500 g ai/ha, scale 0 to 100

CCOC(=O)c1nc(C2CC2)nc(N)c1Br [Compound 1, ethyl 6-amino-5-bromo-2-cyclopropyl-4-pyrimidinecarboxylate]
98: Plant response rating (0 to 100 scale) ([8]; 16 g a.i./ha) | Plant response rating (0 to 100 scale) ([8]; 31 g a.i./ha)
100: Plant response rating, Grape [1] | Plant response rating, Nutsedge, Purple [5, 16] | Plant response rating, Nutsedge, Purple [5, 17] | Plant response rating, Nutsedge, Purple [5, 19] | Plant response rating, Nutsedge, Purple [5, 20] | Plant response rating, Horseweed [6, 10] | Plant response rating, Horseweed [6, 11] | Plant response rating, Horseweed [6, 18] | Plant response rating, Horseweed [6, 17] | Plant response rating, Horseweed [6, 20] | Plant response rating, Horseweed ([6]; Preemergence, 375 g ai/ha, scale 0 to 100) | Plant response rating, Russian Thistle [7, 10] | Plant response rating, Russian Thistle [7, 13] | Plant response rating, Russian Thistle [7, 14] | Plant response rating, Russian Thistle [7, 18] | Plant response rating, Russian Thistle [7, 15] | Plant response rating, Russian Thistle [7, 16] | Plant response rating, Russian Thistle [7, 17] | Plant response rating, Russian Thistle [7, 19] | Plant response rating, Russian Thistle [7, 20] | Plant response rating (0 to 100 scale) ([8]; 62 g a.i./ha) | Plant response rating (0 to 100 scale) ([8]; 125 g a.i./ha) | Plant response rating (0 to 100 scale) ([9]; 4 g a.i./ha) | Plant response rating (0 to 100 scale) ([9]; 8 g a.i./ha) | Plant response rating (0 to 100 scale) ([9]; 16 g a.i./ha) | Plant response rating (0 to 100 scale) ([9]; 31 g a.i./ha) | Plant response rating (0 to 100 scale) ([9]; 62 g a.i./ha) | Plant response rating (0 to 100 scale) ([9]; 125 g a.i./ha)
70: Plant response rating, Horseweed [6, 14]
95: Plant response rating, Horseweed [6, 15] | Plant response rating, Horseweed [6, 16]
50: Plant response rating, Olive ([2]; 1500 g ai/ha) | Plant response rating, Orange [3]
30: Plant response rating, Nutsedge, Purple [5, 11] | Plant response rating, Nutsedge, Purple [5, 18]
3: Plant response rating, Sugarcane [4, 14]
10: Plant response rating, Nutsedge, Purple [5, 14] | Plant response rating, Nutsedge, Purple [5, 15]
63: Plant response rating (0 to 100 scale) ([8]; 4 g a.i./ha)
20: Plant response rating, Nutsedge, Purple [5, 10]
80: Plant response rating (0 to 100 scale) ([8]; 8 g a.i./ha)
13: Plant response rating, Sugarcane [4, 10]
0: Plant response rating, Sugarcane [4, 12] | Plant response rating, Sugarcane [4, 13] | Plant response rating, Sugarcane [4, 15] | Plant response rating, Sugarcane [4, 16] | Plant response rating, Sugarcane [4, 17] | Plant response rating, Sugarcane ([4]; Preemergence, 375 g ai/ha, scale 0-100)
38: Plant response rating, Sugarcane [4, 11]

CCOC(=O)c1nc(C2CC2)nc(N)c1Cl [Compound 4, ethyl 6-amino-5-chloro-2-cyclopropyl-4-pyrimidinecarboxylate]
75: Plant response rating, Orange [3]
40: Plant response rating, Nutsedge, Purple [5, 15]
100: Plant response rating, Grape [1] | Plant response rating, Nutsedge, Purple [5, 16] | Plant response rating, Nutsedge, Purple [5, 17] | Plant response rating, Nutsedge, Purple [5, 20] | Plant response rating, Horseweed [6, 15] | Plant response rating, Horseweed [6, 16] | Plant response rating, Horseweed [6, 17] | Plant response rating, Horseweed [6, 20] | Plant response rating, Russian Thistle [7, 16] | Plant response rating, Russian Thistle [7, 17] | Plant response rating, Russian Thistle [7, 20]
50: Plant response rating, Olive ([2]; 900 g ai/ha)

COC(=O)c1nc(C2CC2)nc(N)c1Cl [Compound 9, methyl 6-amino-5-chloro-2-cyclopropyl-4-pyrimidinecarboxylate]
75: Plant response rating (0 to 100 scale) ([8]; 4 g a.i./ha)
17: Plant response rating, Sugarcane [4, 11]
7: Plant response rating, Sugarcane [4, 10]
100: Plant response rating, Horseweed [6, 15] | Plant response rating, Horseweed [6, 16] | Plant response rating, Horseweed [6, 17] | Plant response rating, Horseweed [6, 20] | Plant response rating (0 to 100 scale) ([8]; 8 g a.i./ha) | Plant response rating (0 to 100 scale) ([8]; 16 g a.i./ha) | Plant response rating (0 to 100 scale) ([8]; 31 g a.i./ha) | Plant response rating (0 to 100 scale) ([8]; 62 g a.i./ha) | Plant response rating (0 to 100 scale) ([8]; 125 g a.i./ha) | Plant response rating (0 to 100 scale) ([9]; 4 g a.i./ha) | Plant response rating (0 to 100 scale) ([9]; 8 g a.i./ha) | Plant response rating (0 to 100 scale) ([9]; 16 g a.i./ha) | Plant response rating (0 to 100 scale) ([9]; 31 g a.i./ha) | Plant response rating (0 to 100 scale) ([9]; 62 g a.i./ha) | Plant response rating (0 to 100 scale) ([9]; 125 g a.i./ha)
0: Plant response rating, Sugarcane [4, 12] | Plant response rating, Sugarcane [4, 13] | Plant response rating, Sugarcane [4, 14]
